These results are taken from paper PMC10150366, “Discovery of an In Vivo Chemical Probe for BCL6 Inhibition by Optimization of Tricyclic Quinolinones” (Journal of Medicinal Chemistry, 2023).

The structures appear in SMILES notation. Values joined by “and” are separate entries in the source; they are usually repeats but may differ in a detail not shown here. Equal values may be shown once. Read-outs that look alike come from different tables or passages of the source.

One assay concerns the target human BCL6 BTB domain (Homo sapiens, UniProt P41182). The assay is described as follows: BCL6 TR-FRET assay. It is filed as binding. As to conditions: for IC90: read-out: BCL6 TR-FRET IC90 Geometric Mean. The procedure: 1. Supplementary experimental: protein production, purification and crystallography 1.1 BCL6 constructs used for assays and crystallography […]
cleavage site. For the TR-FRET assay, the Trx-6His-HRV3C-BCL6 protein construct was used without cleaving the tag, as a 6His was needed to bind to the anti-6His-Terbium antibody. […]
For both plasmid constructs described above, transformed BL21-AI E. coli cells were grown in LB media […]
Expression was carried out at 18 °C for 18 hours. Cells were harvested by centrifugation (5500 g for 30 minutes at 4 °C) and stored at -80 °C.
Cells were re-suspended in a buffer composed of 20 mM Tris pH 8, 250 mM NaCl, 1 mM MgCl2, 0.5 mM […]
lysed by sonication followed by centrifugation at 21,000 g for 45 minutes at 4 °C. […]
ResourceQ and gel filtration using a HiLoad 26/60 Superdex75 column in a buffer containing 20 mM HEPES […]
The final protein was assessed for purity and molar mass by SDS-PAGE and high-resolution mass spectrometry, respectively.
For the uncleaved Trx-6His-HRV3C-BCL6 protein construct to be used in TR-FRET, the protein was directly eluted from the HisTrap FF column without HRV-3C treatment, and submitted to Superdex75 gel filtration […]
Test compounds in DMSO or DMSO alone […]
concentration in 0.7% v/v DMSO final. […]
A general note: Time-resolved FRET reads energy transfer from a long-lived donor to a nearby acceptor.

In assay [1] the target is T1, BCL6-SMRT (NCOR2) corepressor protein-protein interaction (Homo sapiens, UniProt P41182).
T1 construct: DNA encoding full length BCL6 and SMRT; expressed in transfected cells; host or cells: HEK293T
The assay is described as follows: NanoBRET cellular assay (HEK293T). It is filed as cell-based. As to the method: Test compounds in DMSO or DMSO alone
concentration in 0.7% v/v DMSO final.
(also called NCOR2) corepressor protein-protein interaction. DNA encoding full length BCL6 and SMRT
fusion proteins BCL6-nanoLuc and SMRT-HaloTag, respectively. HEK293T cells were plated […] in T75
At the time of assay, compounds
dispensing (Labcyte Inc.). Frozen transfected HEK293T cells were thawed, centrifuged and freezing
DMSO final concentration.
After a short centrifugation the
(1st emission filter) / 450-80 nm (2nd emission filter). The % inhibition at each test concentration was
sigmoidal four-parameter logistic fit equation. […]
On the technique in general: BRET reads energy transfer from a luciferase to a nearby fluorophore.

Where [2] appears, read: Table S1, read-out: BCL6 TR-FRET pIC50 mean (converted).
[3] abbreviates: geometric mean of at least three replicates, read-out: BCL6 TR-FRET IC50.
Where [4] appears, read: HEK-293T, Table S2, read-out: BCL6 NanoBRET IC90 individual replicates.
Where [5] appears, read: geometric mean of at least three replicates, read-out: NanoBRET IC50.
[6] abbreviates: single replicates, Table S2, read-out: BCL6 NanoBRET IC50 individual replicates.

Regarding `Cn1c(=O)c2c(c3cc(Nc4nc(N5C6CCC5COC6)ncc4Cl)ccc31)N[C@@H](C1CC1)C(F)(F)CO2` [compound 4, (S)-10-((2-(3-Oxa-8-azabicyclo[3.2.1]octan-8-yl)-5-chloropyrimidin-4-yl)amino)-2-cyclopropyl-3,3-difluoro-7-methyl-1,2,3,4-tetrahydro-[1,4]oxazepino[2,3-c]quinolin-6(7H)-one], the IC90 (in general, the point of the concentration-response curve where the effect stands at 90%) at human BCL6 BTB domain (Table S1) was 10.2 nM; in assay [1] (HEK-293T, Table S2, several values per compound, read-out: BCL6 NanoBRET IC90 Geometric Mean), 185 nM; in assay [1] (setting [4]) it was 142 nM; in assay [1] (HEK-293T, geometric mean of at least three replicates, read-out: NanoBRET IC90), 143 nM; in assay [1] (Table S2, several values per compound, read-out: BCL6 NanoBRET IC90 Geometric Mean), 101 nM and 154 nM. Also, the IC50 is 1.51 nM on human BCL6 BTB domain (setting [2]); 1.4 nM on human BCL6 BTB domain (setting [3]); 10.7 nM and 11 nM in assay [1] (setting [5]); 12.3 nM and 8.2 nM and 12.1 nM in assay [1] (setting [6]). For the same compound, the calculated free (unbound) cellular IC90 in assay [1] (HEK-293T, calculated free cellular IC90 from NanoBRET assay) was 42 nM. Further, in assay [1] (Table S2), the “BCL6 NanoBRET pIC50 mean” value came out at 7.9696.
Regarding `Cn1c(=O)c2c(c3cc(Nc4nc(N5CC6CCC(C5)O6)ncc4Cl)ccc31)N[C@@H](C1CC1)C(F)(F)CO2` [compound 5, (S)-10-((2-(8-Oxa-3-azabicyclo[3.2.1]octan-3-yl)-5-chloropyrimidin-4-yl)amino)-2-cyclopropyl-3,3-difluoro-7-methyl-1,2,3,4-tetrahydro-[1,4]oxazepino[2,3-c]quinolin-6(7H)-one], the “BCL6 TR-FRET pIC50 mean” value at human BCL6 BTB domain (Table S1) is reported as 8.527. Also, the 90% effect concentration (IC90) was found to be 19.9 nM on human BCL6 BTB domain (Table S1) and 98.7 nM in assay [1] (setting [4]). The IC50 was 3 nM on human BCL6 BTB domain (setting [3]); 12.5 nM in assay [1] (setting [5]); 9.6 nM and 14.7 nM and 14 nM in assay [1] (setting [6]). Moreover, in assay [1] (Table S2), the “BCL6 NanoBRET pIC50 mean” value is recorded as 7.9026.
`Cn1c(=O)c2c(c3cc(Nc4nc(N5C6COCC5CC(O)C6)ncc4Cl)ccc31)N[C@@H](C1CC1)C(F)(F)CO2` (stereo partly drawn) [compound 8, (S)-10-((5-Chloro-2-((1R,5S,7R)-7-hydroxy-3-oxa-9-azabicyclo[3.3.1]-nonan-9-yl)pyrimidin-4-yl)amino)-2-cyclopropyl-3,3-difluoro-7-methyl-1,2,3,4-tetrahydro-[1,4]oxazepino[2,3-c]quinolin-6(7H)-one]: the concentration for an effect of 90% (IC90) at human BCL6 BTB domain (Table S1) is 7.6 nM. In addition, the IC50 on human BCL6 BTB domain (setting [2]) was 1.31 nM; on human BCL6 BTB domain (setting [3]), 1.3 nM.
Regarding `Cn1c(=O)c2c(c3cc(Nc4nc(N5CCC5)ncc4Cl)ccc31)N[C@@H](C1CC1)C(F)(F)CO2` [compound 9, (S)-10-((2-(Azetidin-1-yl)-5-chloropyrimidin-4-yl)amino)-2-cyclopropyl-3,3-difluoro-7-methyl-1,2,3,4-tetrahydro-[1,4]oxazepino[2,3-c]quinolin-6(7H)-one], on human BCL6 BTB domain (Table S1), the “BCL6 TR-FRET pIC50 mean” value is recorded as 8.2581. Moreover, the IC90 is 45.4 nM on human BCL6 BTB domain (Table S1) and 1620 nM in assay [1] (setting [4]). The IC50 on human BCL6 BTB domain (setting [3]) was 5.5 nM; in assay [1] (setting [5]), 149 nM; in assay [1] (setting [6]), 229 nM and 48.1 nM and 302 nM; in assay [1] (supplement, read-out: BCL6 NanoBRET IC50 Geometric Mean), 149 nM. Further, in assay [1] (Table S2), the “BCL6 NanoBRET pIC50 mean” value worked out at 6.8258.
Consider `COC1CN(c2ncc(Cl)c(Nc3ccc4c(c3)c3c(c(=O)n4C)OCC(F)(F)[C@H](C4CC4)N3)n2)C1` [compound 10, (S)-10-((5-Chloro-2-(3-methoxyazetidin-1-yl)pyrimidin-4-yl)amino)-2-cyclopropyl-3,3-difluoro-7-methyl-1,2,3,4-tetrahydro-[1,4]oxazepino[2,3-c]quinolin-6(7H)-one], for which the IC90 on human BCL6 BTB domain (Table S1) is 34.1 nM; in assay [1] (setting [4]), 386 nM. In addition, the IC50 on human BCL6 BTB domain (setting [2]) is 3.93 nM; at human BCL6 BTB domain (setting [3]) it was 3.7 nM; in assay [1] (Table S2, read-out: BCL6 NanoBRET pIC50 mean (converted)), 43.6 nM; in assay [1] (setting [5]), 38 nM; in assay [1] (setting [6]), 26 nM and 57.5 nM and 55.3 nM.
